These results are taken from article PMC11964921 (npj Drug Discovery, 2025).

As usually defined, the IC50 is the midpoint of a concentration-inhibition curve.

In brackets after ≈: the same amount, converted by molar mass. Read-outs that look alike come from different tables or passages of the source.

One test concerns M. tuberculosis Erdman. Description: MIC determination, agar dilution method. Format: cell-based. On the technique in general: In agar dilution the substance is mixed into plates at graded concentrations.
The test system of test [1] is membranes from M. smegmatis wild-type strain MC2155. The class given is biochemical. Particulars: read-out: IC50 oxygen consumption.
The test system of test [2] is membranes from M. smegmatis cytochrome bc knockout strain (ΔqcrCAB). The class given is biochemical.
Test [3] concerns M. tuberculosis H37Rv-ΔcydAB. Description: microbe, parasite or virus in culture. The class given is cell-based. Particulars: Mycobacterium tuberculosis; for MIC50: 120 h.
The subject of test [4] is M. tuberculosis H37Rv Pasteur. Kind of test: MIC determination, agar dilution method. Format: cell-based.
The subject of test [5] is membranes from M. smegmatis cytochrome bd knockout strain (ΔcydAB). The class given is biochemical. Particulars: read-out: IC50 oxygen consumption.
The subject of test [6] is isolated membranes from M. smegmatis. Particulars: cited from earlier work.
A further test concerns whole cell M. smegmatis. Particulars: cited from earlier work.
In test [7] the test system is cytochrome bd knockout strain of M. smegmatis. Particulars: cited from earlier work.
Test [8] concerns isolated membranes from M. tuberculosis. Particulars: cited from earlier work.
The subject of test [9] is M. tuberculosis H37Rv-ΔcydAB. Details: species or system mouse (Balb/cBy). Particulars: mouse, in vivo, 25 mg/kg.

For `CCc1nc2ccc(Cl)cn2c1C(=O)NCc1ccc(C2CC3(C2)CN(S(=O)(=O)C(F)(F)F)C3)cc1` [JNJ-2901], the MIC in the test on M. tuberculosis Erdman (Mycobacterium tuberculosis, Erdman reference strain, read-out: MIC) is more than 16 nM; with M. tuberculosis Erdman (Mycobacterium tuberculosis, strain Erdman, read-out: MIC), more than 8 ng/mL; in the test with M. tuberculosis Erdman (strain Erdman), more than 8 ng/mL; in test [4] (Mycobacterium tuberculosis, H37Rv reference strain, read-out: MIC), more than 16 nM; in test [4] (Mycobacterium tuberculosis, strain H37Rv Pasteur, <1% of inoculum able to grow, read-out: MIC), more than 8 ng/mL; in test [4] (strain H37Rv Pasteur, <1% of inoculum able to grow) it was more than 8 ng/mL. For the same compound, the IC50 worked out at 89 ± 54 nM in test [1] and 60 ± 26 nM in test [5]. Further, in test [2], the “reduction of activity (oxygen consumption)” value is recorded as 20%. The compound further came in with an MIC50 in [3] of 2.5 ± 0.1 nM (≈ 1.35 ng/mL).

For `CCc1nc2ccc(Cl)cn2c1C(=O)NCc1ccc(N2CCC(c3ccc(OC(F)(F)F)cc3)CC2)cc1` [Q203], the IC50 in [6] and in test [8] was approximately 20 nM in each case. Moreover, the MIC was approximately 2 nM (≈ 1.11 ng/mL) in [3], more than 50000 nM with whole cell M. smegmatis and ~ 2.5 μM in test [7]. In addition, in test [3], the MIC50 came to 2 ± 0.1 nM (≈ 1.11 ng/mL).

In the case of `COc1nc2ccc(Br)cc2cc1[C@@H](c1ccccc1)[C@@](O)(CCN(C)C)c1cccc2ccccc12` [bedaquiline, reference compound], in test [9], the “reduction in bacterial load (lungs)” value is 4.6 log.
